Experiment: gradient 5% acetonitrile 3 min, to 50% in 2 min, to 85% in 15 min, held 3 min, 100 µL/min
Conditions: column: Zorbax Extend-C18 2.1 x 50 mm; eluents: water / acetonitrile, 0.1% formic acid
Procedure, shortened: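 Data were gathered over 3 months by HPLC coupled to a quadrupole time-of-flight mass spectrometer, operated in positive and negative ionization mode. Mixtures of ~100 pure standards ran on a Zorbax Extend-C18 column (2.1 × 50 mm, 1.8 μm) at 100 μL/min, with water and acetonitrile each containing 0.1% formic acid and dead and dwell volumes of 40 μL and 900 μL. Retention time was read from adduct peaks picked by computer and checked manually.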

RP-LC retention time [s] | Structure (SMILES)
739 | COc1ccc(N2CCN(C(=O)CC3CCN(C(=O)c4[nH]c(C)cc4C)CC3)CC2)cc1
585 | COCCn1nc2n(c1=O)CCN(C(=O)c1ccco1)CC2
685 | COc1ccc(NC(=O)N2CC(N(C3CCOCC3)S(C)(=O)=O)C2)cc1F
756 | c1ccc(-c2nc3ncc4c(n3n2)CCC4)cc1
649 | COCc1cn(C2CN(C(=O)c3ccc(C)s3)C2)nn1
621 | O=C(Cn1cnc2ccccc2c1=O)N1CCC(c2nnc(-c3ccco3)o2)CC1
635 | CN(CCCNC(=O)Cn1c(=O)c2cccn2c2ccc(F)cc21)C1CCCCC1
601 | CCOC(=O)c1cccc(NC(=O)N2CCc3nc[nH]c3C2)c1
1140 | CC1OC1c1ccc(-c2ccc(C3OC3C)cc2)cc1 (stereo not given)
757 | CS(=O)(=O)N1CCCC(c2nnc(-c3ccccc3F)s2)C1 (stereo not given)
859 | CCC(=O)Nc1ccc(C2(C(=O)NCC(C)C)CCCCC2)cc1
828 | CCn1nc(CNC(=O)C2CCCCC2)c2ccccc21
1070 | Fc1ccc(-c2nnc(Cc3nc(-c4cccc(Cl)c4)no3)o2)cc1
794 | Cc1ccc(Cl)cc1N(C)S(=O)(=O)c1cc2n(c1)CCCN(C)C2=O
854 | CCCCCN1CC(=O)N(c2cccc(Cl)c2)[C@@H]2CS(=O)(=O)C[C@@H]21
987 | Cc1ccc(CNC(=O)C(C)n2nc(C)c3nn(-c4ccccc4)c(-n4cccc4)c3c2=O)o1 (stereo not given)
1160 | CCc1ccc(-c2noc(CN3C(=O)COc4ccc(C)cc43)n2)cc1
915 | Cc1cccc(-n2ccnc(SCC(=O)Nc3cc(Cl)ccc3C)c2=O)c1
709 | O=C(NCCc1c[nH]c2ccccc12)C1CCN(c2nnc(N3CCCCC3=O)s2)CC1
829 | Cc1cc(C)c(NS(=O)(=O)c2ccc(Cl)c(C(=O)O)c2)c(C)c1
936 | O=C(CSc1nc2scc(-c3ccccc3)c2c(=O)[nH]1)c1ccccc1
910 | COC(=O)c1ccc(NC(=O)C(=O)NCCc2ccc(N3CCCC3)cc2)cc1
1200 | Cc1ccc(NS(=O)(=O)c2cc(-c3cc(C(F)(F)F)on3)sc2C)cc1C

RP-LC retention time [s] | Structure (SMILES)
657 | CNc1ncnc2c1cnn2-c1ccc(F)cc1
730 | CC1(C(=O)NCc2ccc(F)c(Cl)c2)Oc2cccnc2NC1=O (stereo not given)
588 | Cc1cccc2c(C(=O)NC3CC3)cc(N(C)C)nc12
942 | Cc1ccc(NC(=O)C2CCN(S(=O)(=O)c3ccc4c(c3)sc(=O)n4C(C)C)CC2)cc1
691 | O=C(NC1CCCCC1)C1CCCN(c2cnc3nccnc3c2)C1 (stereo not given)
733 | CC1=C(c2ccc(Cl)cc2)S(=O)(=O)N=C1N1CCCN(C(=O)C2CCOC2)CC1 (stereo not given)
689 | O=C(Cc1ccsc1)N1CCC(n2c(-c3ccco3)nc3cccnc32)C1 (stereo not given)
777 | Cc1ccc(Nc2c(-c3ccc(N4CCOCC4)cc3)nc3ccc(Cl)cn23)cc1
802 | COc1ccc(NC2=NS(=O)(=O)C(c3ccccc3)=C2C)cc1OC
577 | CCNC(=O)N1CCCC(c2cccc(C(=O)NCCN3CCOCC3)c2)C1 (stereo not given)
925 | COc1ccc(Cl)cc1C(=O)NCCOc1ccc(F)cc1
604 | CC(=O)Nc1ccc(S(=O)(=O)Nc2ccc3c(c2)CCC(=O)N3C)cc1
723 | CC(=O)N1CCc2cc(N3CC(C(=O)NC4CCCCCC4)CC3=O)ccc21 (stereo not given)
872 | COc1ccccc1-c1nn2c(-c3cc(C(C)C)[nH]n3)nnc2s1
1310 | CCCN(C(=O)c1ccccc1)c1nc(-c2ccccc2)cs1
1060 | COC(=O)c1cc(-c2c[nH]cc2C(=O)OCc2ccccc2)cn1S(=O)(=O)c1ccc(C)cc1
884 | CCOc1ccc(S(=O)(=O)N2CCCC(C(=O)NCCc3ccc(OC)c(OC)c3)C2)cc1 (stereo not given)
602 | O=C(CC1CCN(C(=O)c2ccc3oc(C4CC4)nc3c2)CC1)N1CCN(c2ccccn2)CC1
974 | COc1ccc(OC)c(-c2ccc(=O)n(CCc3nc(-c4cccc(F)c4)no3)n2)c1
745 | CCOC(=O)C1CCN(C(=O)C(C)N2C(=O)C3CCCCN3C(=O)c3ccccc32)CC1 (stereo not given)
1090 | COc1ccc(C2Cn3nnc(-c4nc(-c5ccccc5F)no4)c3CO2)cc1 (stereo not given)
662 | CC(C)N1C(=O)c2cccnc2Sc2cc(NC(=O)c3cccnc3)ccc21
873 | O=C(C1=NN(Cc2ccccc2Cl)c2ccccc2S1(=O)=O)N1CCOCC1

RP-LC retention time [s] | Structure (SMILES)
660 | Cc1nn(-c2ccc(N3CCCCC3)nn2)c(C)c1CCC(=O)NCCc1ccco1
638 | O=C(Cn1nc2n(c1=O)CCCC2)Nc1cccc(F)c1
1010 | Cc1nc(-c2csc(S(=O)(=O)N3CCC(C(=O)Nc4ccc(F)c(Cl)c4)CC3)c2)no1
845 | O=C(CCc1cccc2[nH]ccc12)Nc1ccc(N2CCOCC2)cc1
892 | Cc1ccc(NC(=O)C2CCN(S(C)(=O)=O)c3ccccc3O2)cc1 (stereo not given)
686 | O=C(NCCCN1CCCC1=O)C(=O)NCCC1=CCCCC1
973 | CSc1ccccc1NC(=O)c1cnc(-c2ccc(C)cc2)nc1-c1ccncc1
814 | Cc1ccccc1NC(=O)Cn1c(=O)n(-c2ccc(F)cc2)c2ncccc21
890 | CCCc1nnsc1C(=O)Nc1nnc(Cc2ccc(F)cc2)o1
786 | Cc1ccc(CN2CCN(CC(=O)Nc3ccc(C)cc3)C(=O)C2=O)cc1
1050 | O=C(Nc1ccc2c(c1)OCO2)C(=O)c1cccn1Cc1ccc(F)cc1
767 | Cn1cccc1C(=O)NCCn1c(=O)n(Cc2ccccc2)c2cccnc21
837 | CCS(=O)(=O)N1CCCc2cc(C(=O)NC3CCCC3)ccc21
853 | O=C(Cc1ccccc1Br)N1CCN(c2cc(-c3ccccc3)[nH]n2)CC1
634 | CCOC(=O)N1CCN(C(=O)c2cn(CC(O)c3ccccc3)nn2)CC1 (stereo not given)
993 | COc1ccc(-n2cc(C(=O)OCC3CCCO3)c3ccccc3c2=O)cc1 (stereo not given)
764 | CCOCC(=O)Nc1ccc2c(c1)Sc1ncccc1C(=O)N2C(C)C
1230 | O=C(Nc1ccc(F)c(Cl)c1)C1CCCN(c2ncc(-c3ccc(F)cc3)cn2)C1 (stereo not given)
811 | O=C(Nc1ccccc1F)N1CCC(n2cnc3cc(Cl)ccc3c2=O)CC1
670 | CC(C)n1nc2c(S(=O)(=O)N3CCOCC3)cccn2c1=O
633 | Cc1ccc(-n2c(N3CCCC(C(=O)NC(C)c4cccnc4)C3)nc3ccsc3c2=O)cc1 (stereo not given)
898 | Cc1oc2ccn(Cc3cccc(F)c3)c(=O)c2c1C(=O)N(C)Cc1ccccc1
818 | COc1ccc(NC(=O)C2CC(=O)N(CCc3c[nH]c4ccc(Cl)cc34)C2)cc1 (stereo not given)

RP-LC retention time [s] | Structure (SMILES)
739 | CC(=O)Nc1ccc(C(=O)N2CC(C)CC(C)C2)o1 (stereo not given)
876 | CCn1c(=O)sc2cc(S(=O)(=O)N3CCC(C(=O)NC4CCCCC4)CC3)ccc21
822 | CC(C)(Oc1ccc(Cl)cc1)C(=O)Nc1ccc2cn[nH]c2c1
910 | O=C(NCc1ccc(-c2nc(-c3cccs3)no2)s1)C1CCC1
1110 | Cc1ccc(-c2nnc(Cc3nc(-c4ccccc4Cl)no3)o2)cc1F
953 | Cc1ccc(-c2nocc2CCC(=O)NC(C)c2ccc(F)cc2)cc1 (stereo not given)
844 | Cc1ccc(CCNC(=O)c2cc3n(n2)CC(C)(C(=O)NC2CCCCC2)N(C)C3=O)cc1 (stereo not given)
639 | O=C(NCc1ccccc1)N1CCN(c2ccc(-c3cccs3)nn2)CC1
890 | Cc1nc(-c2ccc(F)cc2)sc1C(=O)N1CCC(CC(=O)N(C)Cc2ccco2)CC1
621 | O=C(Nc1ccc2c(c1)OCCO2)c1cc2c(s1)CN(C1CCCC1)C2
724 | CNS(=O)(=O)c1ccc(C(=O)N2CCc3ccccc3C2)o1
1010 | O=C(NCC1CCS(=O)(=O)C1)c1cc(-c2ccccc2)on1 (stereo not given)
697 | CCc1ccc(CNC(=O)c2ccc3ncnc(N4CCCC4)c3c2)cc1
1100 | C=CCN1C(=O)COc2ccc(-c3csc(NC(=O)c4ccc(Cl)cc4)n3)cc21
809 | Cc1nnc(-c2cc(C)n(CC(=O)Nc3ccc(C)c(C)c3)c2C)o1
834 | Cc1ccc(-n2c(C)c(C)c3c(=O)n(CC(=O)NC4CCCC4)cnc32)cc1
705 | O=C(Nc1cccc(N2CCCCC2=O)c1)c1ccc(F)c(F)c1
660 | CCCN1C(=O)c2cc(C(=O)N3CCN(C4CCCCC4)CC3)nn2CC1(C)C(=O)NC1CCCC1 (stereo not given)
825 | CC(C)n1nnc2ccc(-c3noc(CNC(=O)c4ccccc4)n3)cc21
716 | CC(C)n1c(CCNC(=O)CCc2ccccc2)nc2cccnc21

Structure (SMILES) | RP-LC retention time [s]
CCN(CC)C(=O)N[C@@H]1C[C@@H]2c3cccc4[nH]cc(c34)C[C@H]2N(C)C1 | 684

From the METLIN SMRT retention time set (Domingo-Almenara et al. 2019)
